Assay results: article PMC12202533, “Mechanistic Insights and Anti-cancer Activity of 2H-benzo[b][1,4]oxazin-3(4H)-one Linked 1,2,3-Triazoles in Human Cancer Cells” (Frontiers in Pharmacology, 2025)

Assays:
Huh7 = test: CCK-8 cell viability assay; type: cell-based; conditions: Homo sapiens, Huh-7, Huh7, 40 μM, 48 h, read-out: Cell viability (100%), 40 μM, 48 h, Huh7
Experimental: (§1) In order to investigate the anticancer activity of new synthetic 1,4-benzoxazinone-linked 1,2,3-triazole compounds, we chose several cancer cell lines, including A549 (lung), Huh7 (liver), MCF-7 (breast), HCT-116 (colon), and SKOV3 (ovary), and measured cell viability using the CCK-8 assay. Cells were exposed to 40 μM of the compounds for 48 h, and then cell viability was determined. […] In addition, we used the reference drug gefitinib as a positive control and measured its cell viability on different cell lines. […] We used BEAS-2B cells as a normal cell line to determine the toxic effects of these compounds on normal cells. […] Furthermore, we evaluated the IC50 of these compounds in A549.
(§2) Human cancer cell lines A549, Huh7, MCF-7, HCT-116, and SKOV3 were obtained from ATCC. The cells were cultured in DMEM or RPMI 1640 medium supplemented with 10% FBS and 1% penicillin/streptomycin and incubated at 37°C in a CO2-humidified atmosphere.
(§3) Cells were cultured in DMEM or RPMI 1640 medium containing 10% FBS and 1% penicillin/streptomycin at 37°C and 5% CO2. The CCK-8 assay was performed on several human cancer cell lines, including A549, Huh7, MCF-7, HCT-116, and SKOV3, according to the manufacturer’s instructions. Cells were plated at a density of 5 × 10^3 cells per well in a 96-well plate. After 24 h of incubation, cells were treated with 40 μM compounds for 48 h. Cell viability was assessed by adding 10 μL of CCK-8 reagent, dissolved in the cell culture medium, and incubating for 1 h. Absorbance was measured at 450 nm using a microplate reader. IC50 values were determined using a dose-response curve with six concentrations (0, 10, 20, 40, 80, and 160 μM), and IC50 values were calculated using GraphPad Prism software.

MCF-7 = test: CCK-8 cell viability assay; type: cell-based; conditions: Homo sapiens, MCF7, MCF-7, 40 μM, 48 h, read-out: Cell viability (100%), 40 μM, 48 h, MCF-7
Experimental: as §1, §2, §3

SKOV3 = test: CCK-8 cell viability assay; type: cell-based; conditions: Homo sapiens, SK-OV-3, SKOV3, 40 μM, 48 h, read-out: Cell viability (100%), 40 μM, 48 h, SKOV3
Experimental: as §1, §2, §3

[1] = CCK-8 cell viability assay, normal cell line; type: cell-based; conditions: human, BEAS-2B cells (normal cell line), BEAS-2B normal cell line, read-out: Cell viability (100%), 40 μM, 48 h, BEAS-2B
Experimental: as §1, §3

A549 cells [2] = test: Annexin V-FITC/PI apoptosis quantification by flow cytometry; type: cell-based, human; conditions: 48 h
Experimental: We used these two compounds to clarify this function and explore the underlying mechanism. To investigate whether the new compound could induce cell apoptosis, A549 cells were exposed to different concentrations of 14b and 14c for 48 h. The cells were then stained with Annexin V-FITC and propidium iodide (PI). The Annexin V-FITC/PI staining was performed to quantify the percentage of apoptotic cells by flow cytometry.
A549 cells were exposed to different concentrations of 14b and 14c (5 μM, 10 μM, and 20 μM) for 48 h. Cells were collected and stained with Annexin V-FITC and PI, and apoptotic cells were measured by flow cytometry. Data are presented as mean ± SEM, *P < 0.05.
A549 cells were plated at a density of 3 × 10^5 cells per well in a six-well plate. Compounds at concentrations of 0, 5, 10, or 20 μM were added to the cells for 48 h. Cells were then collected, washed with PBS, and stained with Annexin V-FITC and propidium iodide for 20 min. Apoptotic cells were quantified using a flow cytometer, and the data were further analyzed using FlowJo software.

A549 cells [3] = test: Calcein AM/PI live/dead viability assay; type: cell-based, human; conditions: 24 h
Experimental: To investigate the role of 14b and 14c in regulating cell proliferation and death, A549 cells were treated with different concentrations of compounds for 24 h, and the live/dead cell numbers were then observed by staining with calcein AM and propidium iodide.
FIGURE 4 Compound 14b and 14c increased dead cells and decreased live cells. (A–B) A549 cells were treated with different concentrations of 14b and 14c (5 μM, 10 μM, and 20 μM) for 24 h (C–D) BEAS-2B cells were treated with different concentrations of 14b and 14c (5 μM, 10 μM, and 20 μM) for 24 h. Live and dead cell numbers were stained with calcein in AM and PI, respectively, and cells were observed by confocal microscopy. Data are presented as mean ± SEM, *P < 0.05.
The live/dead viability assay was performed using the Calcein/PI Live/Dead Viability Assay Kit. A549 cells were plated at a density of 5 × 10^3 cells per well in a 96-well plate and allowed to adhere overnight. Compounds were then added at concentrations of 0, 5, 10, or 20 μM for 24 h. After replacing the medium with fresh culture medium containing Calcein AM and propidium iodide, the cells were incubated for 30 min at 37°C in the dark. Live and dead cells were observed and photographed using a confocal microscope.

A549 cells [4] = test: DNA damage staining (γ-H2AX antibody and DAPI); type: cell-based, human; conditions: A549, 5, 10, and 20 μM, 24 h
Experimental: In order to further verify the effects of 2H-1,4-benzoxazin-3(4H)-one linked 1,2,3-triazole derivatives on DNA damage, A549 cells were treated with different doses (5, 10, and 20 μM) of compounds 14b and 14c. After 24-h treatment, cells were stained with γ-H2AX antibody and DAPI, cell nuclei were stained blue, and DNA-damaged cells were stained green. Using confocal microscopy, cells were observed and photographed.
A549 cells were seeded at a density of 2 × 10^3 cells per well in 96-well plates. Cells were treated with different concentrations (0, 5, 10, 20, and 30 μM) of the compounds for 24 h. DNA damage was assessed using a DNA damage detection kit. The cell nuclei were stained blue, while DNA-damaged cells were stained green. Cells were then observed and photographed using a fluorescence microscope.

A549 cells [5] = test: Autophagy staining assay (MDC probe); type: cell-based, human; conditions: A549, 10, 20, and 30 μM, 24 h
Experimental: To further evaluate the role of 2H-1,4-benzoxazin-3(4H)-one-linked 1,2,3-Triazole derivatives in regulating autophagy, A549 cells were treated with different doses (10, 20, and 30 μM) of compounds 14b and 14c for 24 h, and the autophagosome was detected by MDC (monodansylcadaverine) probe.
A549 cells were seeded at a density of 2 × 10^3 cells per well in a 96-well plate and treated with compounds at concentrations of 0, 5, 10, 20, and 30 μM for 24 h. After treatment, the medium was replaced, and cells were stained with monodansylcadaverine for 1 h in the dark at 37°C. Cells were then imaged using a confocal microscope.

SMILES | viability at 40 µM (Huh7) [%] | viability at 40 µM (MCF-7) [%] | viability at 40 µM (SKOV3) [%] | viability at 48 h, 40 µM [1] [%] | percentage of early and late apoptotic cells (A549 cells [2]; A549, 5 μM) [%] | percentage of early and late apoptotic cells (A549 cells [2]; A549, 10 μM) [%] | percentage of early and late apoptotic cells (A549 cells [2]; A549, 20 μM) [%] | Dead cells (A549 cells [3]; A549, 5 μM) | Dead cells (A549 cells [3]; A549, 10 μM and 20 μM) | Live cells (A549 cells [3]; A549, different concentrations (5, 10, 20 μM)) | DNA damage (γ-H2AX staining) (A549 cells [4]) | autophagy (autophagosome, MDC probe) (A549 cells [5]) | live/dead cell numbers compared with compound 14b (A549 cells [3]; A549, 5, 10, 20 μM)
O=C1COc2ccc(NC(=O)c3cccc(-c4cn(-c5cccc(Br)c5)nn4)c3)cc2N1 [Compound 14b] | 123 ± 2.08 | 114 ± 1.68 | 98.02 ± 0.87 | 93.2 ± 0.61 | 13.92 | 25.85 | 49.04 | increased | greatly and largely increased | consistently decreased | significantly led to DNA damage in a concentration-dependent manner | autophagy was largely induced | 
O=C1COc2ccc(NC(=O)c3cccc(-c4cn(-c5ccccc5F)nn4)c3)cc2N1 [Compound 14c] | 125 ± 1.53 | 110 ± 2.45 | 57.2 ± 4.16 | 105 ± 2.38 | 12.57 | 27.21 | 72.02 |  |  |  | significantly led to DNA damage in a concentration-dependent manner | autophagy was largely induced | The same results were also observed
